Where a SMILES comes first, the peptide text is derived from it. Where no end group is shown, it is not given here. [ ]: non-standard residue; d: D form. Phg(4-OMe) = COc1ccc([C@H](N)C(=O)O)cc1; dPhg = N[C@@H](C(=O)O)c1ccccc1; Phg = N[C@H](C(=O)O)c1ccccc1
Tested on: mice
Assay: not given
Details: administration intracerebroventricularly; cited from earlier work
For “H-Tyr-Gly-Gly-Phe-Met-OH [methionine enkephalin]”, the analgesic activity is given as “exhibit analgesic activity”.

Tested on: mouse
Assay: mouse hot plate test (analgesic activity)
Assay type: in vivo
Details: subcutaneous, hot plate 52° C., 15 minutes after administration, latency until jump
Procedure: In this test, a mouse is placed inside an upright acrylic cylinder comprising, as its base, a hot plate surface which is maintained at 52° C. The mouse is given, orally or by subcutaneous injection, a predetermined amount of test compound dissolved or suspended in a suitable carrier, and, 15 minutes after administration of the test compound, the mouse is placed on the hot plate surface. The latency in seconds until the mouse jumps from the hot plate surface is measured. […] This must occur in a dose range which produces no motor incoordination or incapacitation. The following Table records the ED50 results obtained from this test.
With `COc1ccc([C@H](NC(=O)[C@H](Cc2ccccc2)NC(=O)CNC(=O)[C@@H](C)NC(=O)[C@@H](N)Cc2ccc(O)cc2)C(N)=O)cc1` [Example 1, L-Tyrosyl-D-alanyl-glycyl-L-phenylalanyl-L-p-methoxyphenylglycinamide] (H-Y[dA]GF[Phg(4-OMe)]-NH2) the “Analgesic Activity, Hot Plate Test ED50” value was 3.14 mg/kg.
With `C[C@@H](NC(=O)[C@@H](N)Cc1ccc(O)cc1)C(=O)NCC(=O)N[C@@H](Cc1ccccc1)C(=O)N[C@H](C(N)=O)c1ccccc1` [Example 2, L-Tyrosyl-D-alanyl-glycyl-L-phenylalanyl-L-phenylglycinamide] (H-Y[dA]GF[Phg]-NH2) the “Analgesic Activity, Hot Plate Test ED50” value was 0.40 mg/kg.
With `C[C@@H](NC(=O)[C@@H](N)Cc1ccc(O)cc1)C(=O)NCC(=O)N[C@@H](Cc1ccccc1)C(=O)N[C@@H](C(N)=O)c1ccccc1` [Example 3, L-Tyrosyl-D-alanyl-glycyl-L-phenylalanyl-D-phenylglycinamide] (H-Y[dA]GF[dPhg]-NH2) the “Analgesic Activity, Hot Plate Test ED50” value was 0.23 mg/kg.
For `C[C@@H](NC(=O)[C@@H](N)Cc1ccc(O)cc1)C(=O)NCC(=O)N(C)[C@@H](Cc1ccccc1)C(=O)N[C@H](C(N)=O)c1ccccc1` [Example 6, L-Tyrosyl-D-alanyl-glycyl-L-(N-methyl)phenylalanyl-L-phenylglycinamide], the “Analgesic Activity, Hot Plate Test ED50” value was 0.19 mg/kg.
In the case of `C[C@@H](NC(=O)[C@@H](N)Cc1ccc(O)cc1)C(=O)NCC(=O)N(C)[C@@H](Cc1ccccc1)C(=O)N[C@@H](C(N)=O)c1ccccc1` [Example 7, L-Tyrosyl-D-alanyl-glycyl-L-(N-methyl)phenylalanyl-D-phenylglycinamide], the “Analgesic Activity, Hot Plate Test ED50” value is reported as 3.82 mg/kg.
For `CCN(C(=O)CNC(=O)[C@@H](C)NC(=O)[C@@H](N)Cc1ccc(O)cc1)[C@@H](Cc1ccccc1)C(=O)N[C@H](C(N)=O)c1ccccc1` [Example 8, L-Tyrosyl-D-alanyl-glycyl-L-(N-ethyl)phenylalanyl-L-phenylglycinamide], the “Analgesic Activity, Hot Plate Test ED50” value was 0.064 mg/kg.
With `CCCN(C(=O)CNC(=O)[C@@H](C)NC(=O)[C@@H](N)Cc1ccc(O)cc1)[C@@H](Cc1ccccc1)C(=O)N[C@H](C(N)=O)c1ccccc1` [Example 9, L-Tyrosyl-D-alanyl-glycyl-L-(N-n-propyl)phenylalanyl-L-phenylglycinamide] the “Analgesic Activity, Hot Plate Test ED50” value was 0.15 mg/kg.
In the case of “L-Tyrosyl-D-alanyl-glycyl-L-phenylalanyl-D-p-hydroxyphenylglycinamide [Example 4]”, the “Analgesic Activity, Hot Plate Test ED50” value is reported as 1.0 mg/kg.
With “L-Tyrosyl-D-alanyl-glycyl-L-phenylalanyl-D-phenylglycin-N-methylamide [Example 5]” the “Analgesic Activity, Hot Plate Test ED50” value was 0.74 mg/kg.

Tested on: not given
Assay: not given
Details: in vivo; cited from earlier work
For Y[dA]GF[dF]-OH, the analgesic potential is given as “limited analgesic potential”.

Tested on: not given
Assay: not given
Details: administered parenterally; cited from earlier work
For “H-Tyr-Gly-Gly-Phe-Met-OH [methionine enkephalin]”, the useful analgesic activity is listed as “practically devoid of any useful analgesic activity”.
